Assays:
Assay type in all cases: in vivo
[1] = test system: Russian thistle (Salsola iberica); assay: Test B pre-/postemergence plant response; settings: Preemergence; for Russian Thistle plant response rating: 8 g ai/ha
In short: (§1)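 Visual scoring from 0 (no effect) to 100 (complete control) against untreated controls was done 13 to 15 days after greenhouse treatment. Chemicals were formulated in a surfactant-containing non-phytotoxic solvent and applied to soil preemergence or to 1- to 4-leaf (2-18 cm) plants postemergence.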

[2] = test system: downy bromegrass (Bromus tectorum); assay: Test B pre-/postemergence plant response; settings: for Bromegrass, Downy plant response rating: 8 g ai/ha
In short: as §1

[3] = test system: woolly cupgrass (Eriochloa villosa); assay: Test B pre-/postemergence plant response; settings: for Cupgrass, Woolly plant response rating: 8 g ai/ha
In short: as §1

[4] = test system: Italian ryegrass (Lolium multiflorum); assay: Test B pre-/postemergence plant response; settings: for Ryegrass, Italian plant response rating: 8 g ai/ha
In short: as §1

[5] = test system: giant foxtail (Setaria faberii); assay: Test B pre-/postemergence plant response; settings: for Foxtail, Giant plant response rating: 8 g ai/ha
In short: as §1

[6] = test system: cocklebur (Xanthium strumarium); assay: Test B pre-/postemergence plant response; settings: for Cocklebur plant response rating: 8 g ai/ha
In short: as §1

[7] = test system: yellow nutsedge (Cyperus esculentus); assay: Test B pre-/postemergence plant response; settings: for Nutsedge, Yellow plant response rating: 8 g ai/ha
In short: as §1

[8] = test system: velvetleaf (Abutilon theophrasti); assay: Test B pre-/postemergence plant response; settings: for Velvetleaf plant response rating: 8 g ai/ha
In short: as §1

corn (Zea mays) = assay: Test B pre-/postemergence plant response; settings: for Corn plant response rating: 8 g ai/ha
In short: as §1

[9] = test system: bermudagrass (Cynodon dactylon); assay: Test B pre-/postemergence plant response; settings: for Bermudagrass plant response rating: 8 g ai/ha
In short: as §1

[10] = test system: umbrella sedge (Cyperus difformis); assay: Test B flooded paddy test plant response
In short: (§2)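 Rice, umbrella sedge, ducksalad and barnyardgrass at 2-leaf stage; pots flooded to 3 cm, compounds applied into paddy water, depth held throughout. Greenhouse 13 to 15 days, then visual rating vs untreated controls on 0–100 scale (0 no effect, 100 complete control); dash means no test result.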

[11] = test system: barnyardgrass (Echinochloa crus-galli); assay: Test B flooded paddy test plant response
In short: as §2

[12] = test system: ducksalad (Heteranthera limosa); assay: Test B flooded paddy test plant response
In short: as §2

rice (Oryza sativa) = assay: Test B flooded paddy test plant response
In short: as §2

[13] = 16 g ai/ha, scale 0 to 100 (0 no effect, 100 complete control)
[14] = Postemergence, 16 g ai/ha, scale 0 to 100
[15] = Postemergence, 31 g ai/ha, scale 0 to 100, 0 no effect, 100 complete control
[16] = Postemergence, 62 g ai/ha, scale 0 to 100, 0 no effect, 100 complete control
[17] = Preemergence, 16 g ai/ha, scale 0 to 100 (0 no effect, 100 complete control)
[18] = Preemergence, 31 g ai/ha, 0 to 100 scale, 0 no effect, 100 complete control
[19] = Preemergence, 62 g ai/ha, scale 0 to 100
[20] = Preemergence, scale 0 to 100 (0 no effect, 100 complete control)
[21] = Flood (flooded paddy test), 125 g ai/ha, scale 0 to 100, 0 no effect, 100 complete control
[22] = Flood (flooded paddy test), 250 g ai/ha, scale 0 to 100, 0 no effect, 100 complete control
[23] = Flood, 31 g ai/ha, scale 0 to 100
[24] = Flood (flooded paddy test), 62 g ai/ha, scale 0 to 100, 0 no effect, 100 complete control
[25] = Preemergence, 31 g ai/ha, scale 0 to 100 (0 no effect, 100 complete control)

Cc1cc(-c2ccc(Cl)cc2)nn1-c1c(OC(=O)c2ccccc2Cl)cnn(C)c1=O [Compound 38]
45: Plant response rating, Bromegrass, Downy [2, 14] | Foxtail, Giant plant response rating ([5]; Preemergence, scale 0 to 100) | Corn plant response rating (corn (Zea mays); Preemergence, scale 0 to 100)
20: Plant response rating, Foxtail, Giant [5, 14] | Plant response rating, Sedge, Umbrella [10, 23] | Plant response rating, Barnyardgrass [11, 23]
0: Plant response rating, Russian Thistle [1, 13] | Plant response rating, Russian Thistle ([1]; 31 g ai/ha, 0 to 100 scale, 0 no effect, 100 complete control) | Plant response rating, Russian Thistle ([1]; 62 g ai/ha, scale 0 to 100) | Russian Thistle plant response rating ([1]; scale 0 to 100) | Cupgrass, Woolly plant response rating ([3]; Preemergence, scale 0 to 100) | Foxtail, Giant plant response rating ([5]; postemergence, 0-100 scale) | Cocklebur plant response rating ([6]; postemergence, 0-100 scale) | Plant response rating, Cocklebur [6, 14] | Plant response rating, Cocklebur [6, 15] | Plant response rating, Cocklebur [6, 16] | Plant response rating, Cocklebur [6, 17] | Plant response rating, Cocklebur [6, 18] | Plant response rating, Cocklebur [6, 19] | Cocklebur plant response rating ([6]; Preemergence, scale 0 to 100) | Nutsedge, Yellow plant response rating ([7]; postemergence, 0-100 scale) | Plant response rating, Nutsedge, Yellow [7, 14] | Plant response rating, Nutsedge, Yellow [7, 15] | Plant response rating, Nutsedge, Yellow [7, 16] | Plant response rating, Nutsedge, Yellow [7, 17] | Plant response rating, Nutsedge, Yellow [7, 18] | Plant response rating, Nutsedge, Yellow [7, 19] | Nutsedge, Yellow plant response rating ([7]; Preemergence, scale 0 to 100) | Velvetleaf plant response rating ([8]; postemergence, 0-100 scale) | Plant response rating, Velvetleaf [8, 14] | Plant response rating, Velvetleaf [8, 16] | Plant response rating, Velvetleaf [8, 17] | Plant response rating, Velvetleaf [8, 18] | Plant response rating, Velvetleaf [8, 19] | Velvetleaf plant response rating ([8]; Preemergence, scale 0 to 100) | Plant response rating, Rice (rice (Oryza sativa); [23])
30: Bromegrass, Downy plant response rating ([2]; postemergence, 0-100 scale) | Ryegrass, Italian plant response rating ([4]; Preemergence, scale 0 to 100) | Plant response rating, Ducksalad [12, 21]
60: Plant response rating, Bromegrass, Downy [2, 16] | Plant response rating, Bromegrass, Downy [2, 18] | Bermudagrass plant response rating [9, 20]
90: Plant response rating, Bromegrass, Downy [2, 19] | Plant response rating, Cupgrass, Woolly [3, 18] | Corn plant response rating (corn (Zea mays); postemergence, 0-100 scale)
55: Plant response rating, Bromegrass, Downy [2, 17] | Bromegrass, Downy plant response rating ([2]; Preemergence, scale 0 to 100)
98: Plant response rating, Cupgrass, Woolly [3, 14] | Plant response rating, Ryegrass, Italian [4, 16] | Plant response rating, Foxtail, Giant [5, 17]
75: Plant response rating, Corn (corn (Zea mays); [18]) | Plant response rating, Rice (rice (Oryza sativa); [24]) | Plant response rating, Rice (rice (Oryza sativa); [21])
80: Plant response rating, Ryegrass, Italian [4, 17]
85: Plant response rating, Ryegrass, Italian [4, 14] | Plant response rating, Ryegrass, Italian [4, 15] | Plant response rating, Bermudagrass [9, 14] | Plant response rating, Rice (rice (Oryza sativa); [22])
95: Plant response rating, Ryegrass, Italian [4, 18] | Plant response rating, Corn (corn (Zea mays); [14]) | Plant response rating, Corn (corn (Zea mays); [19]) | Plant response rating, Barnyardgrass [11, 24] | Plant response rating, Barnyardgrass [11, 21] | Plant response rating, Barnyardgrass [11, 22]
70: Cupgrass, Woolly plant response rating ([3]; postemergence, 0-100 scale) | Plant response rating, Sedge, Umbrella [10, 21] | Plant response rating, Sedge, Umbrella [10, 22]
50: Plant response rating, Bromegrass, Downy [2, 15] | Plant response rating, Cupgrass, Woolly [3, 17] | Plant response rating, Foxtail, Giant [5, 15] | Plant response rating, Corn (corn (Zea mays); [17])
10: Ryegrass, Italian plant response rating ([4]; postemergence, 0-100 scale)
100: Plant response rating, Cupgrass, Woolly [3, 15] | Plant response rating, Cupgrass, Woolly [3, 16] | Plant response rating, Cupgrass, Woolly [3, 19] | Plant response rating, Ryegrass, Italian [4, 19] | Plant response rating, Foxtail, Giant [5, 16] | Plant response rating, Foxtail, Giant [5, 18] | Plant response rating, Foxtail, Giant [5, 19] | Plant response rating, Corn (corn (Zea mays); [15]) | Plant response rating, Corn (corn (Zea mays); [16]) | Plant response rating, Bermudagrass [9, 15] | Plant response rating, Bermudagrass [9, 16] | Plant response rating, Bermudagrass [9, 17] | Plant response rating, Bermudagrass [9, 18] | Plant response rating, Bermudagrass [9, 19]
40: Bermudagrass plant response rating ([9]; postemergence, 0-100 scale) | Plant response rating, Ducksalad [12, 22] | Plant response rating, Ducksalad [12, 23]

CCCc1cc(-c2ccc(Cl)cc2)nn1-c1c(O)cnn(C)c1=O [Compound 43]
95: Plant response rating, Cupgrass, Woolly [3, 15] | Plant response rating, Cupgrass, Woolly [3, 16] | Foxtail, Giant plant response rating ([5]; Preemergence, scale 0 to 100) | Plant response rating, Bermudagrass [9, 19]
75: Plant response rating, Barnyardgrass [11, 21]
80: Plant response rating, Bromegrass, Downy [2, 19] | Cupgrass, Woolly plant response rating ([3]; postemergence, 0-100 scale) | Ryegrass, Italian plant response rating ([4]; postemergence, 0-100 scale) | Corn plant response rating (corn (Zea mays); postemergence, 0-100 scale)
70: Plant response rating, Bromegrass, Downy [2, 18] | Plant response rating, Corn (corn (Zea mays); [17])
60: Plant response rating, Bromegrass, Downy [2, 15] | Plant response rating, Cupgrass, Woolly [3, 17]
0: Plant response rating, Russian Thistle [1, 13] | Plant response rating, Russian Thistle ([1]; 31 g ai/ha, scale 0 to 100 (0 no effect, 100 complete control)) | Plant response rating, Russian Thistle ([1]; 62 g ai/ha, scale 0 to 100) | Russian Thistle plant response rating ([1]; scale 0 to 100) | Plant response rating, Bromegrass, Downy [2, 17] | Bromegrass, Downy plant response rating ([2]; Preemergence, scale 0 to 100) | Cupgrass, Woolly plant response rating ([3]; Preemergence, scale 0 to 100) | Cocklebur plant response rating ([6]; postemergence, 0-100 scale) | Plant response rating, Cocklebur [6, 14] | Plant response rating, Cocklebur [6, 15] | Plant response rating, Cocklebur [6, 16] | Plant response rating, Cocklebur [6, 17] | Plant response rating, Cocklebur [6, 18] | Plant response rating, Cocklebur [6, 19] | Cocklebur plant response rating ([6]; Preemergence, scale 0 to 100) | Nutsedge, Yellow plant response rating ([7]; postemergence, 0-100 scale) | Plant response rating, Nutsedge, Yellow [7, 14] | Plant response rating, Nutsedge, Yellow [7, 15] | Plant response rating, Nutsedge, Yellow [7, 16] | Plant response rating, Nutsedge, Yellow [7, 17] | Plant response rating, Nutsedge, Yellow [7, 25] | Plant response rating, Nutsedge, Yellow [7, 19] | Nutsedge, Yellow plant response rating ([7]; Preemergence, scale 0 to 100) | Velvetleaf plant response rating ([8]; postemergence, 0-100 scale) | Plant response rating, Velvetleaf [8, 14] | Plant response rating, Velvetleaf [8, 16] | Plant response rating, Velvetleaf [8, 17] | Plant response rating, Velvetleaf [8, 25] | Plant response rating, Velvetleaf ([8]; Preemergence, 62 g ai/ha, 0 to 100 scale, 0 no effect, 100 complete control) | Velvetleaf plant response rating ([8]; Preemergence, scale 0 to 100) | Corn plant response rating (corn (Zea mays); Preemergence, scale 0 to 100) | Bermudagrass plant response rating [9, 20] | Plant response rating, Bermudagrass [9, 17] | Plant response rating, Sedge, Umbrella [10, 24] | Plant response rating, Sedge, Umbrella [10, 21] | Plant response rating, Sedge, Umbrella [10, 22] | Plant response rating, Sedge, Umbrella [10, 23] | Plant response rating, Ducksalad [12, 24] | Plant response rating, Ducksalad [12, 21] | Plant response rating, Ducksalad [12, 23] | Plant response rating, Rice (rice (Oryza sativa); [23])
40: Bromegrass, Downy plant response rating ([2]; postemergence, 0-100 scale) | Plant response rating, Barnyardgrass [11, 23]
15: Plant response rating, Rice (rice (Oryza sativa); [24])
65: Plant response rating, Bromegrass, Downy [2, 16] | Plant response rating, Bermudagrass [9, 15] | Plant response rating, Bermudagrass [9, 18]
50: Plant response rating, Barnyardgrass [11, 24]
100: Plant response rating, Cupgrass, Woolly [3, 19] | Plant response rating, Ryegrass, Italian [4, 15] | Plant response rating, Ryegrass, Italian [4, 16] | Plant response rating, Foxtail, Giant [5, 16] | Plant response rating, Foxtail, Giant [5, 17] | Plant response rating, Foxtail, Giant [5, 18] | Plant response rating, Foxtail, Giant [5, 19] | Plant response rating, Corn (corn (Zea mays); [16]) | Plant response rating, Corn (corn (Zea mays); [19])
98: Plant response rating, Cupgrass, Woolly [3, 18] | Plant response rating, Foxtail, Giant [5, 14] | Plant response rating, Foxtail, Giant [5, 15]
20: Bermudagrass plant response rating ([9]; postemergence, 0-100 scale) | Plant response rating, Rice (rice (Oryza sativa); [21]) | Plant response rating, Rice (rice (Oryza sativa); [22])
90: Plant response rating, Cupgrass, Woolly [3, 14] | Plant response rating, Ryegrass, Italian [4, 14] | Plant response rating, Ryegrass, Italian [4, 17] | Plant response rating, Ryegrass, Italian [4, 25] | Plant response rating, Ryegrass, Italian [4, 19] | Ryegrass, Italian plant response rating ([4]; Preemergence, scale 0 to 100)
30: Plant response rating, Ducksalad [12, 22]
85: Foxtail, Giant plant response rating ([5]; postemergence, 0-100 scale) | Plant response rating, Corn (corn (Zea mays); [14]) | Plant response rating, Corn (corn (Zea mays); [15]) | Plant response rating, Corn (corn (Zea mays); [18])
45: Plant response rating, Bromegrass, Downy [2, 14] | Plant response rating, Bermudagrass [9, 14]

From US20100267561A1, “HERBICIDAL PYRIDAZINONE DERIVATIVES” (priority 2007, published 2010)
